Patent publication US10689392B2, “Anti-cancer compounds targeting ral GTPases and methods of using the same” (The Regents of the University of Colorado, a body corporate, priority 2011, dated 2020)
Read-outs that look alike come from different tables or passages of the source.

Columns and labels:
[1] = Pharmacokinetics in mice after intraperitoneal or oral administration; format: in vivo; details: mouse, blood; for half-life: read-out: t½ (converted)
Protocol: The pharmacokinetics of certain Ral-GTPase inhibiting compounds of the invention were evaluated in mice. Following intraperitoneal injection or oral administration, blood samples were collected over several hours and drug concentrations were evaluated by capillary coupled with Time of Flight (TOF) spectrometry.

[2] = tested on: bladder cancer cell lines CRL2169, J82, KU7, MGHU4, LULU2, UMUC3; test: Combination testing with MEK inhibitor AZD6244 in bladder cancer cell lines; format: cell-based, human; details: in conjunction with MEK inhibitor AZD6244, bladder cancer cell lines
RalB = target: T1, RalB (Homo sapiens, UniProt P11234); test: RalB activity in H2122 xenograft tumors, RalBP1 pull-down; format: in vivo, mice; details: single IP dose 50 mg/Kg, tumors collected 2 h (RBC10) or 3 h (RBC8) after injection, FIG. 12B
T1 construct: Xenograft tumors were collected 2 h (RBC10) or 3 h (RBC8) after injection; from tissue; host or cells: H2122 human lung cancer xenograft tumours grown subcutaneously in female nude mice
T1 sequence (P11234 1-206): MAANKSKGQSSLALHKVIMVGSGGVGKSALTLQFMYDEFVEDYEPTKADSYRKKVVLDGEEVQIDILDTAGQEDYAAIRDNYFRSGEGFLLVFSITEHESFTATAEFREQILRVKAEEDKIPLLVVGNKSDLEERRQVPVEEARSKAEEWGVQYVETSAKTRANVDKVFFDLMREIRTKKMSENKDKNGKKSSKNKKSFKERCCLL
Protocol: (§1) Human lung cancer cell line H2122 was inoculated subcutaneously into female nude mice and allowed to grow until tumors reached an average size of 200 mm^3. Mice were given a single IP dose of 50 mg/Kg RBC8, RBC10, or DMSO control. Xenograft tumors were collected 2 h (RBC10) or 3 h (RBC8) after injection. RalA and RalB activity in tumors were measured by pull-down assay using RalBP1 agarose beads and normalized to total protein.

RalA = target: T2, RalA (Homo sapiens, UniProt P11233); test: RalA activity in H2122 xenograft tumors, RalBP1 pull-down; format: in vivo, mice; details: single IP dose 50 mg/Kg, tumors collected 2 h (RBC10) or 3 h (RBC8) after injection, FIG. 12A
T2 construct: Xenograft tumors were collected 2 h (RBC10) or 3 h (RBC8) after injection; from tissue; host or cells: H2122 human lung cancer xenograft tumours grown subcutaneously in female nude mice
T2 sequence (P11233 1-206): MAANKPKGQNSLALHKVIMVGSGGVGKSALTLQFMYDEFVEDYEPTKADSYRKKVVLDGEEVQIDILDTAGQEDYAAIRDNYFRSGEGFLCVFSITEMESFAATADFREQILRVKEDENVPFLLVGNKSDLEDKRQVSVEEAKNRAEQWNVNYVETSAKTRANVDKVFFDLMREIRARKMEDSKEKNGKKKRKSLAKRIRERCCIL
Protocol: as §1

[3] = tested on: lung cancer cell lines A549, H2009, H358, H460, SW1573; test: Combination testing with MEK inhibitor AZD6244 in lung cancer cell lines; format: cell-based, human; details: in conjunction with MEK inhibitor AZD6244, lung cancer cell lines
[4] = tested on: MiaPaCa2 pancreatic cell line; details: cited from earlier work

Structure (SMILES)	AUC(0-inf) ([1]; intraperitoneal (IP))	AUC(0-t) ([1]; intraperitoneal (IP))	Cmax ([1]; intraperitoneal (IP))	Tmax ([1]; intraperitoneal (IP))	half-life ([1]; intraperitoneal (IP))	AUC(0-inf) ([1]; oral (PO))	AUC(0-t) ([1]; oral (PO))	Cmax ([1]; oral (PO))	Tmax ([1]; oral (PO))	half-life ([1]; oral (PO))	efficacy of the combination with AZD6244 [2]	RalB activity in tumors (RalB)	RalA activity in tumors (RalA)	efficacy of the combination with AZD6244 [3]	in vitro growth and survival [4]
CCCCC(=O)N1c2ccccc2NC2=C(C(=O)CCC2)C1c1ccccc1Cl (stereo not drawn) [RBC10, 11-(2-chlorophenyl)-10-pentanoyl-2,3,4,5,10,11-hexahydro-1H-dibenzo[b,e][1,4]diazepin-1-one]	30500 ng·h/mL	30300 ng·h/mL	23.4 µM	1 h	3.7 h	5220 ng·h/mL	4750 ng·h/mL	2.3 µM	1 h	1.9 h	synergistic efficacy	inhibition of RalB	inhibition of RalA	synergistic efficacy	
COC(=O)[C@H](CC(C)C)NC(=O)N1CCN(Cc2nc[nH]c2C)C(=O)[C@@H]1Cc1ccccc1 [GGTI-2417]															inhibit the in vitro growth and survival
